This is an account of results in patent US20070135521A1, “Agent for Preventing Metabolic Syndrome” (YAMAHA HATSUDOKI KABUSHIKI KAISHA, priority 2005, published 2007).

What is called LC50 is the concentration that kills 50% of the test population. Read a high LC50 as a less lethal substance.

Data set [1] has as its system obese model mice fed with a high-fat diet. The data set can be described thus: Effect of astaxanthin monoester on obese model mice fed with a high-fat diet. Type of data set: in vivo, male C57BL/6J strain mice. On the procedure: Astaxanthin was administered to obese model mice fed with a high-fat diet, and the change in body weight, the amount of subcutaneous fat (in the inguinal region and the back), the amount of visceral fat (around the reproductive organs and around the kidney), the liver weight, the blood glucose level, and the insulin concentration in blood were examined in the following manner.
Four week old male C57BL/6J strain mice (SPF) purchased from CHARLES RIVER LABORATORIES JAPAN, INC. were used. The mice were preliminarily fed for 8 days and used for the test after they reached the age of 5 weeks. The mice were divided into three groups of 8 each, that is, a normal diet group, a high-fat diet group, and a high-fat diet+astaxanthin (AX) group, so that the average body weight was equal among the groups.
During the preliminary feeding period, the mice were given an ordinary powder diet (MF, Oriental Yeast Co., Ltd.), and during the test period of 16 weeks, the mice were given the ordinary powder diet or a high-fat diet having the composition shown in Table 2 below. As to drinking water, the mice were allowed to drink freely sterile distilled water from a water supply bottle.
The astaxanthin monoester prepared in Preparation Example 1 was dissolved in an olive oil (Wako Pure Chemical Industries, Ltd.) to prepare a solution containing astaxanthin monoester at a concentration of 60 mg/mL. This solution was administered to the high-fat diet+AX group and the olive oil to the other two groups in a volume of 0.05 mL/10 g body weight every day for 16 weeks from the start of the test (at the age of 5 weeks) to the age of 21 weeks, using a sonde for oral administration in the mice.
During the test period, the body weight was measured once a week using a scale. At the end of the test, the body weight was measured, and thereafter, the mice were fasted overnight and the blood glucose level was measured in the tail of each mouse using OneTouch Ultra™ (manufactured by Life Scan Inc., a blood glucose level measuring device). Next, blood was collected from the heart using a heparinized syringe with heparin Na. Immediately after the collection of blood, blood plasma was separated by centrifugation, and the obtained blood plasma was cryopreserved at −80° C. Then, the liver, the adipose tissue in the inguinal region, the adipose tissue around the reproductive organs, the adipose tissue around the kidney, and the adipose tissue in the back were collected and the weights thereof were measured. Thereafter, the insulin concentration in blood was measured with a commercially available kit (Mouse Insulin ELISA KIT (TMB) (AKRIN-011T): Shibayagi Co., Ltd.), using the blood plasma collected at the end of the test.
The different types of data obtained were expressed as average values±standard errors for each group. In order to test for statistically significant differences between the high-fat diet group and the high-fat diet+AX group or the normal diet group, a multiple comparison test (ANOVA) was performed using an analysis software (Stat View, Abacus Inc., USA), and a comparison between the groups was performed using Fisher's PLSD multiple comparison test. Differences were considered statistically significant when p<0.05.

The test system of data set [2] is Human umbilical vein endothelial cells (HUVECs). The data set can be described thus: Measurement of 50% lethal concentration for HUVEC (alamarBlue). Conditions: 72 hours incubation, 250 μM = maximum concentration dissolved in DMSO. Type of data set: cell-based. On the procedure: Human umbilical vein endothelial cells (HUVECs) (ATCC CRL-1730) were obtained from American Type Culture Collection and precultivated in an Endothelial Cell Growth Medium (CELL APPLICATIONS, USA) containing 10% bovine fetal serum supplemented with 1% Antibiotic-Antimycotic (GIBCO BRL, USA) under a 5% CO2 atmosphere at 37° C.
A Matrigel matrix (BD Biosciences, USA) was melted and kept at 4° C. on ice, and then, 50 μL of the matrix were transferred to each well of a 96-well tissue culture plate. The plate was incubated at 37° C. for at least one hour to solidify the matrix solution.
On the other hand, the astaxanthin monoester obtained in Preparation Example 1 was dissolved in dimethylsulfoxide (DMSO), and then diluted with distilled water to prepare stock test solutions in which the astaxanthin monoester was contained in 40 (v/v)% DMSO at 25000, 2500, 250, 25, and 2.5 μM, respectively. […]
After the incubation, 20 μL of a 90% alamarBlue reagent were added to individual wells, and incubated for an additional 6 hours. Then, the fluorescence intensity of each well was measured at an excitation wavelength of 530 nm and an emission wavelength of 590 nm using a Spectrafluor Plus plate reader to count the number of living cells. […] The 50% lethal concentration was calculated as the concentration at which the number of living cells was 50% of the number of cells at the start of the experiment.
(Resazurin is reduced to fluorescent resorufin, in cell work by metabolically active cells.)

Where [3] appears, read: high-fat diet+AX vs high-fat diet, end of 16-week test, FIG. 2.
[4] abbreviates: high-fat diet+AX vs high-fat diet, end of 16-week test, FIG. 3.

Consider astaxanthin monoester, for which, in data set [1] (high-fat diet+AX group vs high-fat diet group, oral, every day for 16 weeks, 60 mg/mL in olive oil, 0.05 mL/10 g body weight, FIG. 1), the “change over time in mean body weight” value is listed as “the increase in body weight tended to be suppressed”. In data set [1] (setting [3]), the “mean weight of subcutaneous fat” value was “the accumulation of fat was significantly suppressed” and the “mean weight of visceral fat” value is recorded as “the accumulation of fat was significantly suppressed”. For the same substance, in data set [1] (setting [4]), the “proportion of the liver weight to body weight” value is “the proportion approached that in the case of the normal diet” and the “proportions of the mean weights of the adipose tissues to mean body weight” value is reported as “the increase was significantly suppressed”. Also, the blood glucose level entry in data set [1] (high-fat diet+AX vs high-fat diet, fasted overnight, end of 16-week test, FIG. 5) is listed as “maintained at the same level as that of the normal diet group”. The “insulin concentration in blood” value in data set [1] (high-fat diet+AX vs high-fat diet, plasma at end of 16-week test, FIG. 4) is recorded as “the insulin concentration was considerably suppressed”. This substance registered an LC50 in data set [2] of at least 250 µM.
